Results as given in a melting point compilation (Tetko et al.).

Row | melting point | SMILES
1 | 78 °C | CCCC(O)C(O)(CC)C1CCCCC1 (stereo not drawn)
2 | 234 °C | O=C(Nc1cccc([N+](=O)[O-])c1)Nc1cccc([N+](=O)[O-])c1
3 | 165 °C | COc1ccc(C2(C)CCc3oc4c(Br)cc(Br)cc4c3-c3oc(C)cc32)cc1 (stereo not drawn)
4 | 153 to 156 °C | NC(=S)c1cnccc1C(F)(F)F
5 | 78 °C | O=Cc1ccc2c(Br)cccc2c1
6 | 50 °C | CCCCCCCCCCCCCCCCCCCC(=O)OCC
7 | 118 °C | FC(F)(F)N=C1SC(=Nc2ccccc2)N(c2ccccc2)C1=NC(F)(F)F
8 | 125 °C | O=C(c1cccs1)c1noc(-c2ccc(Cl)cc2)c1S(=O)(=O)c1ccccc1
9 | 23 °C | Oc1ccc(F)cc1Cl
10 | 175 °C | O=C(O)c1ccc([N+](=O)[O-])c(F)c1
11 | 36 to 38 °C | O=C(Cl)c1cccc2c1OCCCO2
12 | 119 °C | COc1c(OC)c2occc2c2oc(=O)ccc12
13 | -53 °C | CCCCCCCCCC(C)CC (stereo not drawn)
14 | 235 to 236 °C | Nc1c(Br)cc(Br)cc1C(=O)O
15 | 79 to 81 °C | CC(SCc1ccccc1)C(=O)O (stereo not drawn)
16 | 100 to 101 °C | NNc1nccc(C(F)(F)F)n1
17 | 65 °C | CC(=O)OCCc1ccc(CCOC(C)=O)cc1
18 | 27 °C | Cc1ccc2cccc(C)c2n1
19 | 101 °C | O=[N+]([O-])c1cccnc1Cl
20 | 81 to 82 °C | O=C=Nc1cccc2nsnc12
21 | 70 to 77 °C | NC(CCO)c1ccccc1 (stereo not drawn)
22 | 64 °C | COc1ccc2nc(C)ccc2c1
23 | 117 °C | CC12CCC(C(=O)/C(=N\Nc3ccccc3)C1=O)C2(C)C (stereo not drawn)
24 | 98 to 100 °C | CCOc1cc(NC(=O)c2ccccc2)c(OCC)cc1N
25 | 57 °C | CCCCCC(=O)c1ccc(O)cc1O
26 | 87 °C | COc1cc(C)ccc1S(=O)(=O)Cl

Row | melting point | SMILES
27 | -15 °C | CCCCCCCCCCOC(C)=O
28 | 207 °C | Nc1cccc2c1C(=O)c1cccc(Cl)c1C2=O
29 | 220 to 222 °C | COc1cc(-c2n[nH]c(=S)n2/N=C/c2ccccc2O)cc(OC)c1OC
30 | 32 to 34 °C | CC(C)S(=O)(=O)CC#N
31 | 53.5 °C | OC(O)C(Br)(Br)Br
32 | 159 to 160 °C | O=[N+]([O-])c1ccc(Oc2c(Cl)cc(S(=O)(=O)Cl)cc2Cl)c(Cl)c1
33 | 47 °C | Cc1c(F)cccc1CC#N
34 | 67 °C | COC(=O)c1ccc(Cl)cc1N
35 | 161 °C | CC1(C(=O)O)CCC(C(Br)C(Br)c2ccccc2)C1(C)C (stereo not drawn)
36 | 102 to 104 °C | O=C(O)c1cnon1
37 | 196 °C | COc1ccccc1-c1nnc2n1NC(c1ccc([N+](=O)[O-])cc1)S2 (stereo not drawn)
38 | 201 °C | Cc1cc(C)c(O)c(C(=O)CC2CC(=O)NC(=O)C2)c1
39 | 21 °C | Nc1ccc(F)c(F)c1
40 | 30 to 32 °C | BrCC12CC3CC(CC(C3)C1)C2
41 | 140 °C | COc1ccc(-c2onc(C(=O)c3ccc(Br)cc3)c2S(=O)(=O)c2ccccc2)cc1
42 | 28 °C | C#Cc1ccc(F)cc1
43 | 155 to 159 °C | O=C1C=CC(=O)N1c1ccc(Cc2ccc(N3C(=O)C=CC3=O)cc2)cc1
44 | 185 °C | O=C1c2ccccc2C(=O)C1c1cc(Cl)c([N+](=O)[O-])cc1[N+](=O)[O-]
45 | 82 to 83 °C | CCOC(=O)c1cc(-c2ccc(C)cc2)oc1C
46 | 20 °C | c1ccc2c(c1)CCCN2
47 | 91 to 93 °C | O=C(Oc1c(F)c(F)c(F)c(F)c1F)c1cc(C(F)(F)F)ccc1N1CCOCC1
48 | 101 °C | OC1OCCOC1O (stereo not drawn)
49 | 52 to 55 °C | COC(=O)c1cccc(N)c1
50 | 123 °C | O=C(NCCCc1ccccc1)c1cc([N+](=O)[O-])cc([N+](=O)[O-])c1
51 | 41.5 °C | CCSC(=O)COc1ccc(Cl)cc1C
52 | 64 °C | O=[N+]([O-])c1ccc(Cl)nc1Cl

Row | melting point | SMILES
53 | 19 °C | C1CCSCC1
54 | 173 °C | Cc1cccc(O)c1C(=O)O
55 | 74 °C | O=Cc1ccc2oc3ccccc3c2c1
56 | -12 °C | CCCCNc1ccccc1
57 | -80 °C | CCCCO[Si](OCCCC)(OCCCC)OCCCC
58 | 143 °C | CC1=NN(c2ccccc2)C(=O)C1C(=O)C(F)(F)F (stereo not drawn)
59 | 112 to 118 °C | Cc1cc2cc(Cl)ccc2[nH]1
60 | 142 °C | N#Cc1c(-c2ccccc2)c2c(=O)[nH]n(-c3ccccc3)c2[nH]c1=S
61 | 168 to 170 °C | O=C(O)c1ccc(OC2CCOCC2)nc1
62 | 191 °C | O=C1CC(=O)N(c2ccccc2)N1
63 | 29 °C | CCCCCCCCCCCCCCCCCCC(C)c1ccccc1 (stereo not drawn)
64 | 180 °C | NS(=O)(=O)c1ccc(C(F)(F)F)cc1
65 | 177 °C | O=C(Nc1ccccc1)C(c1ccccc1)c1ccccc1
66 | 47 to 52 °C | Fc1c(F)c(Cl)c(F)c(F)c1S
67 | 85 to 89 °C | CC1(C)OC2C(=O)OC(CBr)C2O1 (stereo not drawn)
68 | 54 to 55 °C | O=[N+]([O-])c1ccc(OCC2CO2)cc1 (stereo not drawn)
69 | 81 to 82 °C | CC(=O)c1c(C)cn(C)c1C
70 | 200 to 205 °C | CC(=O)Oc1ccc2c(c1)Oc1cc(OC(C)=O)ccc1C21OC(=O)c2ccccc21
71 | 152 °C | Cc1ccc(C(O)(c2ccc(C)cc2)C2(C)CCC(C(=O)O)C(C)(C)O2)cc1 (stereo not drawn)
72 | 63.8 °C | CCCCCCCCCCCCCCCCCCCCCCCCCC(=O)OC
73 | -42.8 °C | CC(=O)CC(C)(C)O
74 | 163 to 165 °C | Cc1cccc(C)c1NC(=O)C(C)Br (stereo not drawn)
75 | 40.5 °C | CCCCCCCCCCCCS(=O)(=O)Cl
76 | 173 to 176 °C | COc1cc(C=CC(=O)O)cc(OC)c1
77 | 224 °C | Nc1cnn(-c2ccccc2)c(=O)c1Br
78 | 180 °C | O=C(C1=NOC2C(=O)N(c3ccccc3Cl)C(=O)C12)c1cccs1 (stereo not drawn)

Row | melting point | SMILES
79 | 177 °C | COc1ccc(-c2nn3c(C)nnc3s2)cc1
80 | 127 to 131 °C | NCc1ccccc1O
81 | 75 to 77 °C | Cc1nn(C)c(Cl)c1[N+](=O)[O-]
82 | 76 °C | O=C(C(C(F)(F)F)C(F)(F)F)N(Cc1ccccc1)Cc1ccccc1
83 | 139 °C | Cc1c(C)c(C)c2c(c1C)CC2
84 | 165 °C | O=C(c1ccc2ccccc2c1)c1noc(-c2ccc(Cl)cc2)c1S(=O)(=O)c1ccccc1
85 | 48.3 °C | C1OCC2(CO1)COCOC2
86 | 90 to 91 °C | OCc1cc(-c2ccco2)on1
87 | 227 °C | O=C1c2ccc(O)cc2OC(c2ccc(O)c(O)c2)C1O (stereo not drawn)
88 | 39 to 40 °C | NCc1cc2cc(Br)ccc2o1
89 | -70 °C | CCc1ccc2c(c1)CCCC2
90 | 155 °C | O=C(c1ccc(Br)cc1)c1noc(-c2ccc(Br)cc2)c1S(=O)(=O)c1ccccc1
91 | 118 to 122 °C | CCOC(=O)c1c(SC)nn2c(=O)n(Nc3ccccc3)cnc12
92 | 98 °C | CC(C)OC(=O)C1=C2c3ncccc3ON2C(Cl)C(Cl)C1Cl (stereo not drawn)
93 | 120 to 121 °C | CC(C)CN1C(=O)N2CCc3ccccc3C2(c2ccc(Cl)cc2)C1=O (stereo not drawn)
94 | 300 °C | N=C(N)NCC(=O)O
95 | 119 to 121 °C | N#CCS(=O)(=O)Cc1cccc(C(F)(F)F)c1
96 | 176 °C | O=C(C1=NOC2C(=O)N(c3ccc(Br)cc3)C(=O)C12)c1ccco1 (stereo not drawn)
97 | 302 °C | Cn1c(=O)c(C2=NNC(=O)C2=NNc2ncccn2)c(O)c2ccccc21
98 | 83 °C | Nc1cc(CO)ccn1
99 | 76 °C | CC(=O)OC1(c2ccccc2)Cc2ccccc21 (stereo not drawn)
100 | 164 to 167 °C | CSc1nc2cc(NCc3ccccc3)ccc2[nH]1
101 | 226 to 227 °C | N#CC1(C(=O)c2ccccc2)C(c2ccc(F)cc2)NC(=O)NC1c1ccc(F)cc1 (stereo not drawn)
102 | 203 to 204 °C | COc1ccc(C2Nn3c(nnc3-c3ccccc3OC)S2)cc1 (stereo not drawn)
103 | 195 to 199 °C | O=C(O)C=Cc1cc(Br)ccc1F
104 | 287 to 291 °C | Nc1cnccc1C(=O)O

Row | SMILES | melting point
105 | O=C(O)c1ccccc1C(=O)Nc1cccc2ccccc12 | 185 °C
106 | O=S(=O)(Cl)C(Cl)(Cl)Cl | 140 °C
107 | CSc1nc2ccccc2c(=O)n1-c1ccccc1 | 123 to 125 °C
108 | CCC1COC(Cn2cncn2)(c2ccc(Cl)cc2Cl)O1 (stereo not drawn) | 84 °C
109 | O=c1[nH]c2c(c(=O)n1C1CCCCC1)CCC2 | 316 °C
110 | c1ccc(CC2CCCCN2)cc1 (stereo not drawn) | 32 °C
111 | CCOP(=S)(OCC)SC(CCl)N1C(=O)c2ccccc2C1=O (stereo not drawn) | 68 °C
112 | O=C(O)[C@@H]1CCN1 | 206 to 207 °C
113 | OC(c1ccc(F)cc1)(c1cncnc1)c1ccccc1Cl (stereo not drawn) | 126 °C
114 | CCOP(=S)(OCC)Oc1ccc([N+](=O)[O-])cc1 | 6.1 °C
115 | CC1(C)C(C=C(Cl)Cl)C1C(=O)OC(C#N)c1ccc(F)c(Oc2ccccc2)c1 (stereo not drawn) | 93.5 °C
116 | c1ccc2c(c1)oc1ccccc12 | 86.5 °C
117 | O=C(c1ccc(OCc2ccccc2)cc1)c1cn(C(=O)c2ccc(OCc3ccccc3)cc2)c2ccccc12 | 181 °C
118 | c1ccc2c(c1)Cc1c-2ccc2ccccc12 | 190 °C
119 | CCCOC(N)=O | 60 °C
120 | CCSC(=O)Cl | -60 °C
121 | COc1cc2c(cc1OCc1ccccc1)C(CC(C)C)N(Oc1c([N+](=O)[O-])cc([N+](=O)[O-])cc1[N+](=O)[O-])CC2 (stereo not drawn) | 173 °C
122 | O=[N+]([O-])c1cn[nH]c1 | 161 °C
123 | COC(=O)NS(=O)(=O)c1ccc(N)cc1 | 230 °C
124 | O=C(O)c1cc(Oc2ccc(C(F)(F)F)cc2Cl)ccc1[N+](=O)[O-] | 155 °C
125 | COc1cc(CCl)cc(OC)c1 | 46 to 48 °C
126 | N#CCCCC#N | -29 °C
127 | CC(C)(C)C(=O)C1C(=O)c2ccccc2C1=O | 109 °C
128 | FC(F)C(F)F | -89 °C
